Results published in US7189691B2, “Methods and compositions for treating leukemia” (The Administrators of the Tulane Educational Fund, priority 2004, dated 2007).
“Also recorded” adds a separate entry of the source.

Columns and labels:
[1] = system: B1 leukemia cells; assay: CaspACE FITC-VAD-FMK caspase assay; format: cell-based; settings: 50 μg peptide, 24 h / overnight
Method: To examine an additional marker of apoptosis, apoptosis assays utilizing the FITC-labeled VAD-FMK caspase substrate, CaspACE FITC-VAD-FMK (Promega) were performed according to the manufacturer's instructions. Caspase activation in individual cells was monitored by binding of the caspase substrate, followed by flow cytometry analysis. Briefly, B1 leukemia cells were suspended in RPMI 1640+10% FCS at a concentration of 5×10^5 cells/ml and treated with 50 μg PFWT, PFmut or an equal volume of DMSO. Following an overnight incubation at 37° C., the fluorescent caspase substrate CaspACE FITC-VAD-FMK marker was added to a final concentration of 10 μM and incubated for 20 minutes at 37° C. under light protective conditions. The cells were pelletted, washed, and resuspended in PBS. Cells were then analyzed by flow cytometry using a Becton Dickinson FACS Vantage flow cytometer. A 488 nm wavelength argon-ion laser beam was used for excitation, and the emission was measured using a 530 nm filter.

[2] = system: KP-L-RY leukemia cell line; assay: MTT viability assay; format: cell-based; settings: 72 h, differing concentrations
Method: All cell lines were maintained in RPMI 1640+10% FCS. 100 μl aliquots of cell suspension (5×10^5 cells/ml) were cultured in flat-bottomed 96 well plates in the presence of different concentrations of peptides. After 72 h incubation at 37° C. in humidified air containing 5% CO2, viable cell number was determined by MTT assay as follows: 10 μl of 3-[4,5-dimethylthiazol-2-yl]-2,5-diphenyl tetrazolium bromide (MTT) (5 mg/ml concentration) (Sigma) was added to each well and incubated further for 6 h. Formazan crystals that are formed during incubation were dissolved in 100 μl of acidified isopropanol. The optical density at 550 nm (which is linearly related to the number of viable cells) was measured using a plate spectrophotometer. Growth characteristics of the leukemia cell lines were also determined for cells by Trypan Blue exclusion.

[3] = molecular target: T1, AF4-AF9 interaction (Homo sapiens, UniProt P42568); assay: Enzyme-linked protein binding assay, GST-AF4(749-775) and biotinylated AF9; settings: peptide 20 μg/ml; FIG. 2A
T1 construct: made in house; host or cells: GST-AF4 from E. coli; AF9 by coupled in vitro transcription/translation (Promega)
T1 sequence (P42568 211-568): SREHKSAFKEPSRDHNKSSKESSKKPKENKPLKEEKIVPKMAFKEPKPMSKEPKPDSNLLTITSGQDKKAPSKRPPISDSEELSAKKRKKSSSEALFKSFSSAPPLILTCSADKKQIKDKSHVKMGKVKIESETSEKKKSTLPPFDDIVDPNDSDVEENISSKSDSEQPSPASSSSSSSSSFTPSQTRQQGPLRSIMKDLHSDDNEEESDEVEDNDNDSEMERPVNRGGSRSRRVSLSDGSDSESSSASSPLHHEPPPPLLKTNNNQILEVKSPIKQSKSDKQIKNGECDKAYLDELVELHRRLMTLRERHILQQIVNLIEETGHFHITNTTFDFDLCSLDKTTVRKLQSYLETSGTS
Method: Next, an enzyme-linked protein binding assay was developed as a potential high throughput tool to semi-quantitatively assess the ability of various compounds to disrupt the AF4-AF9 interaction in vitro (FIGS. 2A and 2B).
GST-AF4 (749–775) SEQ ID NO: 107 was bound to glutathione-coated 96-well plates and incubated with biotinylated AF9 in conjunction with 20 μg/ml of the following peptides: • (a) Pen-[…], a fusion protein of PENETRATIN™ transporter peptide to the amino terminus of […](SEQ ID NO: 110, PFmut), • (b) Pen-[…], a fusion protein of the transporter protein PENETRATIN™ to the amino terminus of […](SEQ ID NO: 2; or PFWT), • (c) […] or […](SEQ ID NO: 111); • (d) […] or […] (SEQ ID NO: 112); • (e) […] or […](SEQ ID NO: 113), or with • (f) DMSO, or • (g) GST-Cx, a control.
The plate was washed and the retention of AF9 was determined by a colorimetric assay using streptavidin-alkaline phosphatase and pNPP as a substrate. […] At this same peptide concentration, PFmut (a) in col. […] The 10 amino acid peptide (d) in col. 6 is the smallest molecule found to have activity in vitro.

[4] = system: hematopoietic progenitor cells (peripheral blood stem cells); assay: Methylcellulose clonogenic assay; format: cell-based, human; settings: 100 μg/ml, 72 h incubation; FIG. 4A
Source text: PFWT is toxic to several leukemia cell lines raising the possibility that normal hematopoietic cells are also sensitive to the peptide. To verify whether PFWT has any effect on hematopoietic stem cells, standard methylcellulose-based assays were employed to enumerate the colony-forming potential of human peripheral blood and bone marrow stem cells.
Cryopreserved bone marrow and peripheral blood hematopoietic progenitor cells from healthy donors were thawed and diluted with M199 media (Invitrogen) to give a final DMSO concentration of 0.1%. Cells were incubated at room temperature for 2 h for equilibration. Nucleated cells at a concentration of 5×10^5 cells/ml were then incubated with the peptides PFWT or PFmut or DMSO control vehicle for 48 or 72 h. After the incubation period, 400 μl of the cell suspensions were suspended in 3.6 ml MethoCult GF H4434 methylcellulose media containing cytokines (erythropoietin, G-CSF, GM-CSF, stem cell factor, IL-3 and IL-6) (Stem Cell Technologies) and transferred to 25 mm plates with grids. The cells were plated in triplicate and incubated for 2 weeks at 37° C. with 5% CO2 in a humidified incubator. After 2 weeks, the number of colonies (>50 cells) per plate was counted under an inverted light microscope as a measure of progenitor cell viability.

Row | Compound | caspase activation (fluorescence intensity) [1] | cell viability [2] | AF9 binding to GST-AF4 (retention of AF9) [3] | colony forming potential (colonies >50 cells after 14 days) [4]
1 | CC[C@H](C)[C@H](NC(=O)[C@H](CCCCN)NC(=O)[C@@H](NC(=O)[C@H](Cc1c[nH]c2ccccc12)NC(=O)[C@H](CC(C)C)NC(=O)[C@H](CCCCN)NC(=O)[C@H](CCCCN)NC(=O)[C@H](Cc1c[nH]c2ccccc12)NC(=O)[C@H](CCCCN)NC(=O)[C@H](CCSC)NC(=O)[C@H](CCCNC(=N)N)NC(=O)[C@H](CCCNC(=N)N)NC(=O)[C@H](CC(N)=O)NC(=O)[C@H](CCC(N)=O)NC(=O)[C@H](Cc1ccccc1)NC(=O)[C@H](Cc1c[nH]c2ccccc12)NC(=O)[C@H](CCCCN)NC(=O)[C@@H](NC(=O)[C@H](CCC(N)=O)NC(=O)[C@@H](N)CCCNC(=N)N)[C@@H](C)CC)C(C)C)C(=O)N[C@@H](CC(=O)O)C(=O)N[C@@H](CC(C)C)C(=O)N[C@@H](CC(=O)O)C(=O)N[C@@H](CC(C)C)C(=O)N[C@@H](CC(C)C)C(=O)N[C@@H](CO)C(=O)N[C@@H](CCCNC(=N)N)C(=O)N[C@H](C(=O)N1CCC[C@H]1C(=O)O)C(C)C [PFWT] | caspases are activated | diminished; also recorded: inhibits | almost completely block AF9 binding | neither PFWT nor PFmut have any significant effect; also recorded: does not impair their colony forming potential
2 | CC[C@H](C)[C@H](NC(=O)[C@H](CCC(N)=O)NC(=O)[C@@H](N)CCCNC(=N)N)C(=O)N[C@@H](CCCCN)C(=O)N[C@@H](Cc1c[nH]c2ccccc12)C(=O)N[C@@H](Cc1ccccc1)C(=O)N[C@@H](CCC(N)=O)C(=O)N[C@@H](CC(N)=O)C(=O)N[C@@H](CCCNC(=N)N)C(=O)N[C@@H](CCCNC(=N)N)C(=O)N[C@@H](CCSC)C(=O)N[C@@H](CCCCN)C(=O)N[C@@H](Cc1c[nH]c2ccccc12)C(=O)N[C@@H](CCCCN)C(=O)N[C@@H](CCCCN)C(=O)N[C@@H](CC(C)C)C(=O)N[C@@H](Cc1c[nH]c2ccccc12)C(=O)N[C@@H](CCC(=O)O)C(=O)N[C@@H](CCCCN)C(=O)N[C@@H](CO)C(=O)N[C@@H](CC(=O)O)C(=O)N[C@@H](CC(C)C)C(=O)N[C@@H](CC(=O)O)C(=O)N[C@@H](CC(C)C)C(=O)N[C@@H](CC(C)C)C(=O)N[C@@H](CO)C(=O)N[C@@H](CCCNC(=N)N)C(=O)N[C@H](C(=O)N1CCC[C@H]1C(=O)O)C(C)C [PFmut] | little caspase activation can be detected | much less sensitive | interferes with AF9 binding, but a significant amount of AF9 remains bound in the well | neither PFWT nor PFmut have any significant effect
